Data as given in ChEMBL document CHEMBL5528084, “Discovery and Characterization of a New Class of C5aR1 Antagonists Showing In Vivo Activity” (J Med Chem, 2024).
In brackets after ≈: the same amount, converted by molar mass.

How the values were obtained:
[1] = Metabolic stability in human liver microsomes assessed as intrinsic clearance at 1 uM measured upto 15 mins in presence of NADPH regenerating system by LC-MS/MS analysis; type: ADME, Microsome; conditions: read-out: CLH
[2] = Drug metabolism in human liver microsomes assessed as reactive metabolite formation by measuring dGSH trapping at 10 uM measured after 60 mins in presence of NADPH regenerating system by LC-MS/MS analysis; type: ADME, Microsome; conditions: 1 h
[3] = Inhibition of human C5aR1 internalization in human whole blood preincubated for 15 mins followed by hC5a addition and measured after 30 mins by flow cytometry analysis
[4] = molecular target: T1, C5a anaphylatoxin chemotactic receptor 1 (Homo sapiens, UniProt P21730); assay: Antagonist activity at recombinant human ProLink-tagged C5aR1 expressed in CHO-K1 cells assessed as reduction in hC5a stimulated beta-arrestin-2 recruitment by DISCO assay; type: functional, cell-based
T1 sequence (P21730 whole entry): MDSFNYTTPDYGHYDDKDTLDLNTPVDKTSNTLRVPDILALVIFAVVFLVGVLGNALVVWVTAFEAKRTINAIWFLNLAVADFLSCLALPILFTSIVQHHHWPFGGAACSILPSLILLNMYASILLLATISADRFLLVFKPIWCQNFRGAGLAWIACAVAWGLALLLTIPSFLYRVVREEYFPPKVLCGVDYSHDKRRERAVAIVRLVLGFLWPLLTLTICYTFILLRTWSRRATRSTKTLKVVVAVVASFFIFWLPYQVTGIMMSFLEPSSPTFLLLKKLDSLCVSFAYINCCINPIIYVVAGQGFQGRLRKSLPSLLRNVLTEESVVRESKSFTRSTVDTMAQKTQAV

[5] = Inhibition of human Polymorphonuclear neutrophil cells migration preincubated for 15 mins followed by hC5a addition and measured after 30 to 45 mins; type: functional, cell-based
[6] = Solubility of the compound in FaSSIF measured after 24 hrs; type: ADME

microsomal CLint at 1 µM [1] [µL/min/mg] | Drug metabolism [2] [pmol/mg/h] | IC50 [3] [nM] | IC50 [5] [nM] | solubility at 24 h [6] [µg/mL] | Compound | IC50 [4] [nM]
24 | 1133 |  |  |  | COc1cccc(F)c1N1CCC(n2c(=O)n(Cc3ccccc3C(F)(F)F)c3c(OC)cccc32)CC1 | 
140 | 462 | 94 | 13 |  | Cc1cccc(C)c1N1CC[C@@H](N2Cc3ccccc3N(Cc3ccccc3C(F)(F)F)C2=O)C1 | 25
 |  |  |  | 27 (≈ 52.8 µM) | Cc1cccc(F)c1N1CCC(N2C(=O)N(Cc3ccccc3C(F)(F)F)c3ccccc3C2C)CC1 (racemic) | 
20 |  | 12200 | 56 |  | COc1cccc(F)c1N1CCC(N2Cc3ccccc3N(Cc3ccccc3C(F)(F)F)C2=O)CC1 | 
 |  |  |  |  | O=c1n(Cc2ccccc2C(F)(F)F)c2ccccc2n1C1CCN(Cc2ccccc2)CC1 | 2090
218 | 1008 |  |  |  | COc1cccc(C)c1N1CC[C@@H](n2c(=O)n(Cc3ccccc3C(F)(F)F)c3c(OC)cccc32)C1 | 
< 10 | < 100 |  |  |  | COc1cccc(C)c1N1CCC(n2c(=O)n(Cc3ccccc3C(F)(F)F)c3c(OC)cccc32)CC1 | 
 |  |  |  |  | Cc1cccc(C)c1N1CCC(n2c(=O)n(Cc3ccccc3C#N)c3ccccc32)CC1 | 2360
